The source made the active and inactive calls. The rule behind the calls is not given here.
Tests used:
RAW264.7 [1] = experiment: Inhibition of NF-kappaB transcriptional activity expressed in mouse RAW264.7 cells assessed as inhibition of LPS-induced secretory alkaline phosphatase expression at 10 uM treated 2 hrs before LPS challenge measured after 18 hrs; format: cell-based
RAW264.7 [2] = experiment: Inhibition of LPS-induced NF-kappaB activation in mouse RAW264.7 cells assessed as inhibition JNK phosphorylation at 50 uM treated 2 hrs before LPS challenge measured after 30 mins by Western blot analysis; format: cell-based
RAW264.7 [3] = experiment: Inhibition of LPS-induced NFkappaB/AP-1 DNA binding activity in mouse RAW264.7 cells treated 2 hrs before LPS challenge measured after 1 hr by electrophoretic mobility shift assay; format: cell-based
RAW264.7 [4] = experiment: Antiinflammatory activity in mouse RAW264.7 cells assessed as inhibition of LPS-induced TNFalpha by ELISA; format: functional, cell-based
[5] = biological target: T1, Nuclear factor NF-kappa-B p105 subunit (Mus musculus) (UniProt P25799); experiment: Inhibition of LPS-induced NF-kappaB p50 nuclear translocation in mouse RAW264.7 cells treated 2 hrs before LPS challenge measured up to 1 hr Western blot analysis; format: cell-based
T1 sequence (whole entry): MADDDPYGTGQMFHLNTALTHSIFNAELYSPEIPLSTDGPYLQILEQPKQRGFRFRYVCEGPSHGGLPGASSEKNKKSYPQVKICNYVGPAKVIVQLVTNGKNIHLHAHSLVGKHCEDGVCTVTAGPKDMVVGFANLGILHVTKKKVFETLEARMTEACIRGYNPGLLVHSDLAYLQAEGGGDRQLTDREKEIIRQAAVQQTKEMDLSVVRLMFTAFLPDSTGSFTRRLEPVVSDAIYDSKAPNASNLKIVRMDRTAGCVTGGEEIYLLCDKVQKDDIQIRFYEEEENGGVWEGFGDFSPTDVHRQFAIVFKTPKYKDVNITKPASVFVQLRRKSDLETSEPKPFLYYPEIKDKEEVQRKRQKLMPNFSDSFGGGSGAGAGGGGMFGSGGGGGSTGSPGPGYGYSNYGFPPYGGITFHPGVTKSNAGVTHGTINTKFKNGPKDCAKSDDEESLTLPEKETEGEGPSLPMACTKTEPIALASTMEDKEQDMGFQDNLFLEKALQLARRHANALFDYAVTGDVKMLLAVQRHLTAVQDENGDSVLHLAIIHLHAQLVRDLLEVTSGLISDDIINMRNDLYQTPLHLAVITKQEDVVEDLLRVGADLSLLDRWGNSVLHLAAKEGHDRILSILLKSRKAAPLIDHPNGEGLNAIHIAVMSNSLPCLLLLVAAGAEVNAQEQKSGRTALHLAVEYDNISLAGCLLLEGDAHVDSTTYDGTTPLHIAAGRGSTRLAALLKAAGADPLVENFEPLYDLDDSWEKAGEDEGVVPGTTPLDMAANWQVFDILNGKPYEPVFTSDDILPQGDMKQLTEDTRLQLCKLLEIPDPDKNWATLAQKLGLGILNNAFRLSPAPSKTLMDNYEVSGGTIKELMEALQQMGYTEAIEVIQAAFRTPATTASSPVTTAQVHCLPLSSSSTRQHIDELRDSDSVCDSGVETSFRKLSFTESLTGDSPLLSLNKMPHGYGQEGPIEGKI

RAW264.7 [6] = experiment: Inhibition of LPS-induced Akt phosphorylation in mouse RAW264.7 cells treated 2 hrs before LPS challenge measured after 15 to 30 mins by Western blot analysis; format: cell-based
RAW264.7 [7] = experiment: Inhibition of NF-kappaB activation in mouse RAW264.7 cells assessed as protection of LPS-induced IkappaBalpha degradation at 50 uM treated 2 hrs before LPS challenge measured after 10 to 20 mins by Western blotting; format: cell-based
RAW264.7 [8] = experiment: Antiinflammatory activity in mouse RAW264.7 cells assessed as inhibition of LPS-induced COX2 expression treated 2 hrs before LPS challenge measured after 18 hrs by Western blotting; format: functional, cell-based
RAW264.7 [9] = experiment: Inhibition of LPS-induced NF-kappaB activation in mouse RAW264.7 cells assessed as inhibition ERK phosphorylation at 50 uM treated 2 hrs before LPS challenge measured after 10 to 30 mins by Western blot analysis; format: cell-based
RAW264.7 [10] = experiment: Inhibition of NF-kappaB activation in mouse RAW264.7 cells assessed as inhibition of LPS-induced IkappaBalpha phosphorylation at 50 uM treated 2 hrs before LPS challenge measured after 15 to 20 mins by Western blotting; format: cell-based
RAW264.7 [11] = experiment: Inhibition of NF-kappaB transcriptional activity expressed in mouse RAW264.7 cells assessed as inhibition of LPS-induced secretory alkaline phosphatase expression at 50 uM treated 2 hrs before LPS challenge measured after 18 hrs; format: cell-based
RAW264.7 [12] = experiment: Inhibition of NF-kappaB transcriptional activity expressed in mouse RAW264.7 cells assessed as inhibition of LPS-induced secretory alkaline phosphatase expression treated 2 hrs before LPS challenge measured after 18 hrs; format: cell-based
RAW264.7 [13] = experiment: Antiinflammatory activity in mouse RAW264.7 cells assessed as inhibition of LPS-induced iNOS expression treated 2 hrs before LPS challenge measured after 18 hrs by Western blotting; format: functional, cell-based
RAW264.7 [14] = experiment: Inhibition of NF-kappaB transcriptional activity expressed in mouse RAW264.7 cells assessed as inhibition of LPS-induced secretory alkaline phosphatase expression at 5 uM treated 2 hrs before LPS challenge measured after 18 hrs; format: cell-based
RAW264.7 [15] = experiment: Inhibition of NF-kappaB transcriptional activity expressed in mouse RAW264.7 cells assessed as inhibition of LPS-induced secretory alkaline phosphatase expression at 15 uM treated 2 hrs before LPS challenge measured after 18 hrs; format: cell-based
RAW264.7 [16] = experiment: Inhibition of NF-kappaB transcriptional activity expressed in mouse RAW264.7 cells assessed as inhibition of LPS-induced secretory alkaline phosphatase expression at 25 uM treated 2 hrs before LPS challenge measured after 18 hrs; format: cell-based
[17] = biological target: Transcription factor p65 (Mus musculus) (UniProt Q04207); experiment: Inhibition of LPS-induced NF-kappaB p65 nuclear translocation in mouse RAW264.7 cells treated 2 hrs before LPS challenge measured up to 1 hr Western blot analysis; format: cell-based
RAW264.7 [18] = experiment: Antiinflammatory activity in mouse RAW264.7 cells assessed as inhibition of LPS-induced nitric oxide production treated 2 hrs before LPS challenge measured after 18 hrs by Griess reaction method; format: functional, cell-based
RAW264.7 [19] = experiment: Cytotoxicity against mouse RAW264.7 cells assessed as cell viability up to 50 uM after 24 hrs by MTT assay; format: cell-based; conditions: raw264.7, 24 h
RAW264.7 [20] = experiment: Inhibition of LPS-induced NF-kappaB activation in mouse RAW264.7 cells assessed as inhibition p38alpha/beta phosphorylation at 50 uM treated 2 hrs before LPS challenge measured after 30 mins by Western blot analysis; format: cell-based

Transcription factor p65 (Mus musculus), sequence (Q04207 whole entry): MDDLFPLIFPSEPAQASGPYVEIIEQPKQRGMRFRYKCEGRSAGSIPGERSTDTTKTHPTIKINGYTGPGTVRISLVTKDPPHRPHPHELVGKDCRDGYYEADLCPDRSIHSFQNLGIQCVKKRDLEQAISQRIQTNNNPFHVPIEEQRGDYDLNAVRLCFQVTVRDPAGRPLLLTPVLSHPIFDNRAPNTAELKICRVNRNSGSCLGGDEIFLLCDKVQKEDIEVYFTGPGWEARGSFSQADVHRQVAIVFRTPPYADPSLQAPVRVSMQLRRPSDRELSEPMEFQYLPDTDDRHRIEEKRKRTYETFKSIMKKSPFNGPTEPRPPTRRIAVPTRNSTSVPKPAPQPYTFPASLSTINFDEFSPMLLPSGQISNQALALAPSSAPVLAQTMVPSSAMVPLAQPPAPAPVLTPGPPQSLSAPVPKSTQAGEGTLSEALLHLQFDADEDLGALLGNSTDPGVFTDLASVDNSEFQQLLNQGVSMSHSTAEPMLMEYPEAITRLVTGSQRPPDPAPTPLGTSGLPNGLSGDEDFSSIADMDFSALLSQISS

IC50 (RAW264.7 [4]) [µM] | inhibition [5] | inhibition [17] | IC50 (RAW264.7 [18]) [µM] | Structure (SMILES) | inhibition (RAW264.7 [1]) | inhibition (RAW264.7 [2]) | inhibition (RAW264.7 [3]) | inhibition (RAW264.7 [6]) | Activity (RAW264.7 [7]) | inhibition (RAW264.7 [8]) | inhibition (RAW264.7 [9]) | inhibition (RAW264.7 [10]) | inhibition (RAW264.7 [11]) [%] | inhibition (RAW264.7 [12]) | inhibition (RAW264.7 [13]) | inhibition (RAW264.7 [14]) [%] | inhibition (RAW264.7 [15]) [%] | inhibition (RAW264.7 [16]) [%] | Activity (RAW264.7 [19]) | inhibition (RAW264.7 [20])
 |  |  |  | Cc1ccc(S(=O)(=O)N[C@@H](Cc2ccccc2)C(=O)CCl)cc1 | Active |  |  |  |  |  |  |  |  |  |  |  |  |  |  | 
38.5 | Dose-dependent effect | Dose-dependent effect | 27 | CC1=C(CCc2ccoc2)[C@@]2(C)CC[C@@H](O)C(C)(C)[C@@H]2CC1=O |  | Active | Dose-dependent effect | Active | Active | Dose-dependent effect | Active | Active | 90.3 | Dose-dependent effect | Dose-dependent effect | 20.9 | 56.6 | 69.1 | Non-toxic | Active

— ChEMBL document CHEMBL1949641, “Anti-inflammatory mechanism of 15,16-epoxy-3α-hydroxylabda-8,13(16),14-trien-7-one via inhibition of LPS-induced multicellular signaling pathways” (J Nat Prod, 2012)
